Source: patent US11370771B2, “Inhibitors of TRPC6” (Boehringer Ingelheim International GmbH, priority 2018, dated 2022)

Key:
human TRPC6 = molecular target: T1, human TRPC6 (Homo sapiens, UniProt Q9Y210); experiment: High Throughput Screening Assay Method 1 (FLIPR membrane potential dye, OAG activation, HEK293 cells expressing human TRPC6); format: cell-based; conditions: antagonist effect against human TRPC6, 60 μM OAG, read-out: Fluorescence TRPC6 IC50
T1 construct: expressed in transfected cells
T1 sequence (Q9Y210 1-931): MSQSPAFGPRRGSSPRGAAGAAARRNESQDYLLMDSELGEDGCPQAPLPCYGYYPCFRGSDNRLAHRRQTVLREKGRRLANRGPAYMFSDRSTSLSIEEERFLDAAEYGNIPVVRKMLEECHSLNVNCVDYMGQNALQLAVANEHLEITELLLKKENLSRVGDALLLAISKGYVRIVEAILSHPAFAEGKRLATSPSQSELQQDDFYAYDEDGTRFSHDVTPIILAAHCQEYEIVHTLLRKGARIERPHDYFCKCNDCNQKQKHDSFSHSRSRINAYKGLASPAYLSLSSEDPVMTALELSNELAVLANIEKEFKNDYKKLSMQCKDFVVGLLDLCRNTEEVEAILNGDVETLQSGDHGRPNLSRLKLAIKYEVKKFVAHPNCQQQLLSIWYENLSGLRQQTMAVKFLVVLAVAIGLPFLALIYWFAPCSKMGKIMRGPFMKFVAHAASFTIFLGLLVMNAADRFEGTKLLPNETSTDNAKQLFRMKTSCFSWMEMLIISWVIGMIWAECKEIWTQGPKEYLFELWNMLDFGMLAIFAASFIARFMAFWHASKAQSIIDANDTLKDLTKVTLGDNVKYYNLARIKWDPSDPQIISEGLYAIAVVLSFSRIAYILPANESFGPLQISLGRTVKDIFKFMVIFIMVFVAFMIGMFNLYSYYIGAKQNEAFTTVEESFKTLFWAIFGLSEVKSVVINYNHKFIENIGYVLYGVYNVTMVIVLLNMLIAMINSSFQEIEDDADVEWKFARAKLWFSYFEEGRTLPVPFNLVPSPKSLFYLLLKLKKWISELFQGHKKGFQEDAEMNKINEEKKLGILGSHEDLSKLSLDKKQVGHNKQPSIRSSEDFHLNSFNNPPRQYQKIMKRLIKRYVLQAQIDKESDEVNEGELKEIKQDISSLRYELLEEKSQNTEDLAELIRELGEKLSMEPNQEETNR
Description: This screening assay measures TRPC6 (transient receptor potential cation channel, subfamily C, member 6) ion channel activation via addition either of the commercially available DAG ligand analogue OAG (1-oleoyl-2-acetyl-sn-glycerol) or of the TRPC6 agonist 1-[1-(4,5,6,7,8-pentahydrocyclohepta[2,1-d]thiophen-2-ylcarbonyl)-4-piperidyl]-3-hydrobenzimidazol-2-one (GSK1702934A). The assay utilizes a FLIPR membrane potential (FMP) dye from Molecular Devices, which is a voltage sensitive indicator with a fluorescent quencher. Changes in membrane potential as measured by the fluorescent signal increase during membrane depolarization provide a measurement of channel activity.
The commercially available HEK293 cell line expressing human TRPC6 channel (Axxam/PerkinElmer) is scaled up in bulk and frozen in liquid nitrogen. Frozen cell stocks are thawed and re-suspended in culture media as recommended by the manufacturer supplemented with 0.5 mg/ml of geneticin to promote retention of the TRPC6 construct. Cells are plated at a density of 15,000 cells/well in Greiner 384 well poly-D-lysine coated black clear bottom plates, and incubated for 18-20 h at 37° C. and 5% CO2. To initiate the assay, the growth media is removed using a plate washer and 25 ul of a FMP dye mix is added to each well. The 4× stock FMP dye from the manufacturer is diluted 1× with assay buffer (low calcium Tyrode's assay buffer: 130 mM NaCl, 5 mM KCl, 0.15 mM CaCl2), 1 mM MgCl2, 5 mM NaHCO3, 20 mM HEPES pH 7.4) containing 36 μM BAPTA/AM. The cells are incubated at room temperature (19-22° C.) for 30 minutes. For the screening assay, 5 uL of diluted compound stock is added to each well and incubated for 15 minutes at room temperature (19-22° C.). Using the Hamamatsu FDSS6000 or FDSS7000, 10 uL of the synthetic, membrane permeant analog of 1,2 diacylglycerol (DAG), 1-oleoyl-2-acetoyl-n-glycerol (OAG), is added and fluorescent readings taken every second from 50 seconds to 3 minutes. […] Controls and blanks consisted of HEK293 TRPC6 cells that are exposed to OAG. A reference inhibitor added along with the test compound is included as part of the blanks. This inhibitor suppresses the TRPC6 channel activation. These controls set the screening window, and “hits” are defined as those compounds inhibiting the membrane depolarization caused by OAG by at least 50%. IC50 values are determined for compounds that meet these criteria by titrating compound stock at a final starting concentration of 30 μM using a 3-fold serial dilution for 11 points. Curves are generated by fitting each data set to a four-parameter logistic equation using nonlinear regression.

TRPC6 = conditions: lung tissue of IPAH patients; cited from earlier work
PASMC = conditions: cited from earlier work

| Structure (SMILES) | IC50 (human TRPC6) [nM] | expression of TRPC6 (TRPC6) | proliferation of PASMC (PASMC) |
| --- | --- | --- | --- |
| Nc1ccc(N2CCN(C(=O)c3ccc(Oc4ccc(C(F)(F)F)cc4)cc3)CC2)nn1 [Compound 26, 6-(4-{4-[4-(trifluoromethyl)phenoxy]benzoyl}piperazin-1-yl)pyridazin-3-amine] | 3750 | – | – |
| CN(C)C(=O)c1ccc(Oc2ccc(C(=O)N3CCN(c4ccc(N)nn4)CC3)cc2)cc1 [Compound 25, 4-{4-[4-(6-aminopyridazin-3-yl)piperazine-1-carbonyl]phenoxy}-N,N-dimethylbenzamide] | 8970 | – | – |
| Nc1ccc(N2CCN(C(=O)c3ccc(Oc4ccc5c(c4)OCO5)cc3)CC2)nn1 [Compound 8, 6-{4-[4-(2H-1,3-benzodioxol-5-yloxy)benzoyl]piperazin-1-yl}pyridazin-3-amine] | 1230 | – | – |
| N#Cc1ccc(Oc2ccc(C(=O)N3CCN(c4ccc(N)nn4)CC3)cc2)cc1 [Compound 7, 4-{4-[4-(6-aminopyridazin-3-yl)piperazine-1-carbonyl]phenoxy}benzonitrile] | 4670 | – | – |
| Nc1ccc(N2CCN(C(=O)c3ccc(Oc4ccc(C(F)(F)F)c(F)c4)cc3)CC2)nn1 [Compound 22, 6-(4-{4-[3-fluoro-4-(trifluoromethyl)phenoxy]benzoyl}piperazin-1-yl)pyridazin-3-amine] | 8880 | – | – |
| COc1ccc(Oc2ccc(C(=O)N3CCC(c4ccc(N)nn4)CC3)cc2)cc1 [Compound 9, 6-{1-[4-(4-methoxyphenoxy)benzoyl]piperidin-4-yl}pyridazin-3-amine] | 511 | – | – |
| COc1ccccc1Oc1c(NS(=O)(=O)c2ccc(C(C)(C)C)cc2)nc(-c2ncccn2)nc1OCCO [bosentan] | – | decreases expression of TRPC6 | decreases proliferation |
| Nc1ccc(N2CCN(C(=O)c3ccc(Oc4ccc(C5CC5)cc4)cc3)CC2)nn1 [Compound 6, 6-{4-[4-(4-cyclopropylphenoxy)benzoyl]piperazin-1-yl}pyridazin-3-amine] | 540 | – | – |
| Nc1ccc(N2CCN(C(=O)c3ccc(Oc4ccc(Cl)cc4)cc3)CC2)nn1 [Compound 11, 6-{4-[4-(4-chlorophenoxy)benzoyl]piperazin-1-yl}pyridazin-3-amine] | 1040 | – | – |
| Nc1ccc(C2CCN(C(=O)c3ccc(Oc4ccc(C(F)(F)F)cc4)cc3)CC2)nn1 [Compound 2, 6-(1-{4-[4-(trifluoromethyl)phenoxy]benzoyl}piperidin-4-yl)pyridazin-3-amine] | 504 | – | – |

More lines, main results first:

| IC50 (human TRPC6) [nM] | Structure (SMILES) | expression of TRPC6 (TRPC6) | proliferation of PASMC (PASMC) |
| --- | --- | --- | --- |
| 400 | Nc1ccc(C2CCN(C(=O)c3ccc(Oc4ccc(C5CC5)cc4)cc3)CC2)nn1 [Compound 12, 6-{1-[4-(4-cyclopropylphenoxy)benzoyl]piperidin-4-yl}pyridazin-3-amine] | – | – |
| 372 | Cc1ccc(Oc2ccc(C(=O)N3CCC(c4ccc(N)nn4)CC3)cc2)cc1 [Compound 5, 6-{1-[4-(4-methylphenoxy)benzoyl]piperidin-4-yl}pyridazin-3-amine] | – | – |
| 351 | Nc1ccc(C2CCN(C(=O)c3ccc(Oc4ccc(OC(F)(F)F)cc4)cc3)CC2)nn1 [Compound 4, 6-(1-{4-[4-(trifluoromethoxy)phenoxy]benzoyl}piperidin-4-yl)pyridazin-3-amine] | – | – |
| 75 | Nc1ccc(C2CCN(C(=O)c3ccc(Oc4ccc(F)cc4)cc3)CC2)nn1 [Compound 10, 6-{1-[4-(4-fluorophenoxy)benzoyl]piperidin-4-yl}pyridazin-3-amine] | – | – |
| 191 | Nc1ccc(N2CCN(C(=O)c3ccc(Oc4ccc(OC(F)(F)F)cc4)cc3)CC2)nn1 [Compound 21, 6-(4-{4-[4-(trifluoromethoxy)phenoxy]benzoyl}piperazin-1-yl)pyridazin-3-amine] | – | – |
| 199 | Nc1ccc(N2CCN(C(=O)c3ccc(Oc4ccccc4)cc3)CC2)nn1 [Compound 24, 6-[4-(4-phenoxybenzoyl)piperazin-1-yl]pyridazin-3-amine] | – | – |
| 39 | Nc1ccc(C2CCN(C(=O)c3ccc(Oc4ccccc4)cc3)CC2)nn1 [Compound 3, 6-[1-(4-phenoxybenzoyl)piperidin-4-yl]pyridazin-3-amine] | – | – |
